{"source": "patent US20260263426A1", "about": "“DIAMIDINE ANALOGS FOR ANTI-INFLAMMATORY USE” (MONTDOREX INC., priority 2023, published 2026)", "key": {"HCT-116": {"test_system": "HCT-116", "test": "HCT-116 IC50 (Table 1)", "assay_type": "cell-based", "conditions": "Homo sapiens"}, "endo-exonuclease": {"test_system": "endo-exonuclease", "test": "inhibition of endo-exonuclease activity, in-vitro", "assay_type": "biochemical", "conditions": "read-out: EE IC50", "description": "The inhibition of endo-exonuclease has been measured using pentamidine and a pentamidine analog where the center site of pentamidine (the carbon backbone) has been altered. Endo-exonuclease inhibition has been tested in-vitro."}, "[1]": {"test_system": "non-alcoholic fatty liver disease", "conditions": "mice; Zhao E et al (2017) Hepatology 66:922-935; cited from earlier work"}}, "note": "pIC50: −log10 of the molar value.", "data": [{"compound": "Cl.Cl.N=C(N)c1ccc(OCCCCCOc2ccc(C(=N)N)cc2)cc1", "note": "[Pentamidine HCl]", "values": [{"measurement": "pIC50", "setting": "HCT-116", "result": 3.97}, {"measurement": "pIC50", "setting": "endo-exonuclease", "result": 4.27}, {"measurement": "body weight", "setting": "[1]", "result": "reduces"}, {"measurement": "food intake", "setting": "[1]", "result": "reduces"}, {"measurement": "hepatic triglycerides", "setting": "[1]", "result": "reduces"}, {"measurement": "serum ALT", "setting": "[1]", "result": "reduces"}]}, {"compound": "N=C(N)c1ccc(OCCCCCCCCCCOc2ccc(C(=N)N)cc2)cc1", "note": "[Decamidine-isethionate]", "values": [{"measurement": "pIC50", "setting": "HCT-116", "result": 5.21}, {"measurement": "pIC50", "setting": "endo-exonuclease", "result": 4.63}]}]}
